Like-named read-outs stand apart in the source and are kept apart here.
What was measured:
[1] = molecular target: Human CDK12 wt/CycK (Homo sapiens (Human), UniProt Q9NYV4); test: Radiometric protein kinase assay (33PanQinase Activity Assay), CDK12; assay type: biochemical; details: for CDK7/CDK12: ratio of CDK7 IC50 to CDK12 IC50, greater than 1 indicates selectivity for CDK12
Experimental: (§1) A radiometric protein kinase assay (^33PanQinase® Activity Assay) was used for measuring the kinase activity of the two protein kinases (CDK12/CDK7). All kinase assays were performed in 96-well FlashPlates™ from PerkinElmer (Boston, MA, USA) in a 50 μL reaction volume.
(§2) The reaction cocktail was pipetted in four steps in the following order: • 20 μL of assay buffer (standard buffer) • 5 μL of ATP solution (in H2O) • 5 μL of test compound (in 10% DMSO) • 10 μL of substrate/10 μL of enzyme solution (premixed)
(§3) The reaction mixture was incubated at 30° C. for 60 min and then stopped by the addition of 2% (v/v) H3PO4. Plates were aspirated and washed two times with 200 μL 0.9% (w/v) NaCl. Incorporation of ^33Pi was determined with a microplate scintillation count (Microbeta, Wallac).
The fitting method used was a least-squares fit.

[2] = molecular target: Human CDK7/CycH/MAT1 (Homo sapiens (Human), UniProt P50613); test: Radiometric protein kinase assay (33PanQinase Activity Assay), CDK7; assay type: biochemical; details: ATP 3 μM
Chain of Human CDK7/CycH/MAT1 (P50613 whole entry): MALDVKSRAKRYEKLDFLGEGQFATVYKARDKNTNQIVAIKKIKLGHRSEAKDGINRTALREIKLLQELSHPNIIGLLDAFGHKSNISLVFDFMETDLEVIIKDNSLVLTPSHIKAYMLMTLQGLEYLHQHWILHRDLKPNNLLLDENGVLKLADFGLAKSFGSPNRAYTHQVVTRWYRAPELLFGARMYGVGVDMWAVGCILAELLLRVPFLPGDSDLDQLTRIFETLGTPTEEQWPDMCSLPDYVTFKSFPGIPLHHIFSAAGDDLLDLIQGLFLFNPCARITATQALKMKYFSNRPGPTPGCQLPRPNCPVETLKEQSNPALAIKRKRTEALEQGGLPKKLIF
Chain of Human CDK7/CycH/MAT1 (P51946 whole entry partner): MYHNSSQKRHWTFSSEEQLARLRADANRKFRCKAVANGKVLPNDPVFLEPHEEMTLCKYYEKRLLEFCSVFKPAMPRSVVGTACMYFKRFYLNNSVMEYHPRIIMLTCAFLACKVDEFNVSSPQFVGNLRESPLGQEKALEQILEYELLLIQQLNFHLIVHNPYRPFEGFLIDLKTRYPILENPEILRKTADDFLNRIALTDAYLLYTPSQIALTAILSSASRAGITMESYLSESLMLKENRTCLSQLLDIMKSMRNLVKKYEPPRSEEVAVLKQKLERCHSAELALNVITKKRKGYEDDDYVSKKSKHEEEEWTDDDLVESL
Chain of Human CDK7/CycH/MAT1 (P51948 whole entry partner): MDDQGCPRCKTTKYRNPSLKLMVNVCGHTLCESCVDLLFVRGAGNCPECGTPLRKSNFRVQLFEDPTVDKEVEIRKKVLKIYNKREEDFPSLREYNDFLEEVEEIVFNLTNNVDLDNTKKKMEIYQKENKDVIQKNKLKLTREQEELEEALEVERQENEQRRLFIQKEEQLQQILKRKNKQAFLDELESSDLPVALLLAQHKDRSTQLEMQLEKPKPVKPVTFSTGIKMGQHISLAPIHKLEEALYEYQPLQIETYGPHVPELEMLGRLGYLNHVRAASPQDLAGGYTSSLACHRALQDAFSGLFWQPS
Experimental: Additionally for the CDK7 assay: • Human CDK7/CycH/MAT1 (ProQinase, 0366-0360-4—Lot 2). • RBER-CHKtide (ProQinase, 0581-0000-5—Lot 106).
as §1, §2
For the CDK7 assay, a reaction mixture (50 μL) containing the following components was prepared: • 70 mM HEPES-NaOH (pH 7.5); • sodium orthovanadate (3 μM); • PEG-20000 (50 μg/mL); • DTT (1.2 mM); • MgCl2 (3 mM); • MnCl2 (3 mM); • purified human CDK7/CycH/MAT1 (3.3 nM—Lot 02); • RBER-CHKtide substrate (40 μg/mL—Lot 106); • ATP (3 μM); • [γ-33P]-ATP (approx. 8×10^5 cpm per well); and • test compound at the appropriate concentration such that the final concentration of DMSO was […].
as §3
The residual activities for each concentration and the compound IC50 values were calculated using Quattro Workflow V3.1.1 (Quattro Research GmbH, Munich, Germany). The fitting model for the IC50 determinations was “Sigmoidal response (variable slope)” with parameters “top” fixed at 100% and “bottom” at 0%. The fitting method used was a least-squares fit.

[3] = tested on: A673 cells; test: Cytotoxicity in A673 cells (Cell Titer Glo viability); assay type: cell-based; details: for Ratio of Biochemical Potency:Cellular Potency: CDK12 IC50 / A673 IC50; for IC50: Homo sapiens
Experimental: Cells were plated in 96-well plates at a density of […] viable cells per well in 200 μL fully supplemented growth medium (DMEM+10% heat inactivated foetal bovine serum) and incubated for 24 hours in standard tissue culture conditions. Compounds, including MLN4924, were solubilised in DMSO and then diluted in fully supplemented growth medium at 2× their final assay concentration such that the final DMSO concentration was 0.1%. Growth medium in the assay plates was replaced with 50 μL of growth medium containing 2×MLN4924 (final assay concentration: 30 nM, where tested) or vehicle only and 50 μL of growth medium containing a 2× compound concentration series or vehicle only such that each compound was at 1× final assay concentration in 100 μL.
Cells were then incubated for 72 hours in standard tissue culture conditions before viability was assessed using 50 μL Cell Titer Glo reagent (Promega) per well and luminescence measured on an EnVision plate reader. Data were normalised to vehicle control (100%) and cells treated with 0.1% Triton x-100 for 1 hour before viability measurement (0%; full cell kill). […] Viability curves generated in the presence of MLN4924 were normalised and fixed to controls treated with MLN4924.

[4] = ATP 0.3 μM, read-out: CDK12 IC50
[5] = read-out: CKD12 Biochemical Potency IC50
[6] = A673, read-out: Cellular Potency IC50 (nM) (in A673 cells)
[7] = A673 cells, 72 hours, read-out: A673 IC50

Chain of Human CDK12 wt/CycK (Q9NYV4 whole entry): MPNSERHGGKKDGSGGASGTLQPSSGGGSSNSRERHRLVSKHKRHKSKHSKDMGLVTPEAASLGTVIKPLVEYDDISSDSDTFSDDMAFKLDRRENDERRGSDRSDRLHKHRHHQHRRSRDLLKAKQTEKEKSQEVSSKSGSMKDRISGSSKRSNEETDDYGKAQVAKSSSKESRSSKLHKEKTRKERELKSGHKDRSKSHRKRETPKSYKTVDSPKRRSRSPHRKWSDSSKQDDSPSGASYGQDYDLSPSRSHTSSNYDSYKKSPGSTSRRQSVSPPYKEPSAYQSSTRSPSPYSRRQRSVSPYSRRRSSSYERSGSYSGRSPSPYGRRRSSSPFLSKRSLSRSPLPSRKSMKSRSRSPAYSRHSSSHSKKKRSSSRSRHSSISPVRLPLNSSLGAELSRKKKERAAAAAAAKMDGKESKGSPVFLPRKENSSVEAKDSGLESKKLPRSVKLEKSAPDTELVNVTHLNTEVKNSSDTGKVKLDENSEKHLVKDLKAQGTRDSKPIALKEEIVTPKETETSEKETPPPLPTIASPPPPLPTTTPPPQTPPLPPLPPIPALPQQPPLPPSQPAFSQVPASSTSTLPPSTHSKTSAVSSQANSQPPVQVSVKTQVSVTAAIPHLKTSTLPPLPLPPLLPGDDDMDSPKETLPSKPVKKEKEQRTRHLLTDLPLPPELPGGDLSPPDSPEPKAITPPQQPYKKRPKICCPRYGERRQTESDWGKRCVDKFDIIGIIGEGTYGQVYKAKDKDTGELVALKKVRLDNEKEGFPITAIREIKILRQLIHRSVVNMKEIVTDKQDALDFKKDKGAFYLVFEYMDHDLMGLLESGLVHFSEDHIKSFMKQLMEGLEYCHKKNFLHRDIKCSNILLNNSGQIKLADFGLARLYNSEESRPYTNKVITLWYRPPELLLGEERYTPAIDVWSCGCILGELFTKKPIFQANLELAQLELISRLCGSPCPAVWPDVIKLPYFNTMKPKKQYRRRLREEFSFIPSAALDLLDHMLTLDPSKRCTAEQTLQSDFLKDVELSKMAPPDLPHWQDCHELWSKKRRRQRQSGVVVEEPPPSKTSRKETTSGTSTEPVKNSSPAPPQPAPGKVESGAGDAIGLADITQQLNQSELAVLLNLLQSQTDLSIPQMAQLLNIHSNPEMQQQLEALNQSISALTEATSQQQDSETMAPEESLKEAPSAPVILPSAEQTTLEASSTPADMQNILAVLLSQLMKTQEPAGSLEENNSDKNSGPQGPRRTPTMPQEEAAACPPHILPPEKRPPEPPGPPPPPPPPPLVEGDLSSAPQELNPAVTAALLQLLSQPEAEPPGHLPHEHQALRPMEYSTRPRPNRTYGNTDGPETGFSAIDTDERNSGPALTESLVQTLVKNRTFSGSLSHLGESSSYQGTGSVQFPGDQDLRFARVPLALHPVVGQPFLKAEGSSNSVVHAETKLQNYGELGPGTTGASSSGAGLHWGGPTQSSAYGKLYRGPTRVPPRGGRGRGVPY
Chain of Human CDK12 wt/CycK (O75909 whole entry partner): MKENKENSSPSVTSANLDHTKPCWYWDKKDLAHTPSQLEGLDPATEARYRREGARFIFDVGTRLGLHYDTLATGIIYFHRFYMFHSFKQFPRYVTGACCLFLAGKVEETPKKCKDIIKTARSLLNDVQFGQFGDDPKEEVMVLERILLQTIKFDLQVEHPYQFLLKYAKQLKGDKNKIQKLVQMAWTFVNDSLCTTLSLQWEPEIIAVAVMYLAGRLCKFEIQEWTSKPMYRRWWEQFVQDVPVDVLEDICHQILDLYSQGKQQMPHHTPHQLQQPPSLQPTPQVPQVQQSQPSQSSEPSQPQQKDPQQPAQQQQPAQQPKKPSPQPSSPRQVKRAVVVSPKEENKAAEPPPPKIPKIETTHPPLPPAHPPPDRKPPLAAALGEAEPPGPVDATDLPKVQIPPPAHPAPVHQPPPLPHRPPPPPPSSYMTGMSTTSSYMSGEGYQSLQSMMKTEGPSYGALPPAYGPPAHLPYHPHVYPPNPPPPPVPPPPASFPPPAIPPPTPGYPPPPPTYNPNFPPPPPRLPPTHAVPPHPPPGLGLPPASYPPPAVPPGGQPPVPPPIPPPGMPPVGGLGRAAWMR

| SMILES | IC50 [1, 4] [nM] | CDK7/CDK12 [1] | IC50 [1, 5] [nM] | IC50 [2] [nM] | Ratio of Biochemical Potency:Cellular Potency [3] | IC50 [3, 6] [nM] | IC50 [3, 7] [nM] |
| --- | --- | --- | --- | --- | --- | --- | --- |
| CC(C)c1cnn2c(NCc3ccc(-c4ccccn4)cc3)cc(NC[C@H]3CCNC[C@@H]3O)nc12 [PPA-001, (3R,4R)-4-(((3-isopropyl-7-((4-(pyridin-2-yl)benzyl)amino)pyrazolo[1,5-a]pyrimidin-5-yl)amino)methyl)piperidin-3-ol] | 61 | 2.7 | 61 | 162 | 21.79 | 2.8 | 2.8 |
| CC(C)c1cnn2c(NCc3ccc(-c4ccncc4)cc3)cc(NC[C@H]3CCNC[C@@H]3O)nc12 [PPA-002, (3R,4R)-4-(((3-isopropyl-7-((4-(pyridin-4-yl)benzyl)amino)pyrazolo[1,5-a]pyrimidin-5-yl)amino)methyl)piperidin-3-ol] | 34 | 2.3 | 34 | 79 | 0.27 | 127 | 127 |
| CC(C)c1cnn2c(NCc3ccc(-c4cccnc4)cc3)cc(NC[C@H]3CCNC[C@@H]3O)nc12 [PPA-003, (3R,4R)-4-(((3-isopropyl-7-((4-(pyridin-3-yl)benzyl)amino)pyrazolo[1,5-a]pyrimidin-5-yl)amino)methyl)piperidin-3-ol] | 47 | 1.6 | 47 | 76 | 2.90 | 16.2 | 16.2 |
| CC(C)c1cnn2c(NCc3ccc(-c4ncccn4)cc3)cc(NC[C@H]3CCNC[C@@H]3O)nc12 [PPA-007] | 51 | 2.2 | 51 | 112 | 30.00 | 1.7 | 1.7 |
| CC(C)c1cnn2c(NCc3ccc(-c4ccncn4)cc3)cc(NC[C@H]3CCNC[C@@H]3O)nc12 [PPA-008] | 52 | 3.0 | 52 | 154 | 1.63 | 32 | 32 |
| N#Cc1cnn2c(NCc3ccc(-c4ccccn4)cc3)cc(NC[C@H]3CCNC[C@@H]3O)nc12 [PPA-010] | 36 | 9.4 | 36 | 340 | 4.50 | 8 | 8 |
| Cc1cc(CNc2cc(NC[C@H]3CCNC[C@@H]3O)nc3c(C(C)C)cnn23)ccc1-c1ccccn1 [PPA-011] | 160 | 1.0 | 160 | 153 | 2.32 | 69 | 69 |
| Cc1cccnc1-c1ccc(CNc2cc(NC[C@H]3CCNC[C@@H]3O)nc3c(C(C)C)cnn23)cc1 [PPA-012] | 188 | 0.9 | 188 | 165 | 13.33 | 14.1 | 14.1 |
| COc1cccnc1-c1ccc(CNc2cc(NC[C@H]3CCNC[C@@H]3O)nc3c(C(C)C)cnn23)cc1 [PPA-013] | 89 | 1.3 | 89 | 114 | 40.45 | 2.2 | 2.2 |
| CC(C)c1cnn2c(NCc3ccc(-c4ncccc4F)cc3)cc(NC[C@H]3CCNC[C@@H]3O)nc12 [PPA-014] | 74 | 1.0 | 74 | 72 | 11.56 | 6.4 | 6.4 |
| COc1cc(CNc2cc(NC[C@H]3CCNC[C@@H]3O)nc3c(C4CC4)cnn23)ccc1-c1ccccn1 [PPA-015] | 235 | 1.9 | 235 | 445 | 1.31 | 179 | 179 |
| O[C@H]1CNCC[C@@H]1CNc1cc(NCc2ccc(-c3ccccn3)cc2)n2ncc(Cl)c2n1 [PPA-016] | 22 | 4.3 | 22 | 94 | 110.00 | 0.2 | 0.2 |
| O[C@H]1CNCC[C@@H]1CNc1cc(NCc2ccc(-n3cccc3)cc2)n2ncc(C3CC3)c2n1 [PPA-017] | 115 | 2.9 | 115 | 337 | 63.89 | 1.8 | 1.8 |
| O[C@H]1CNCC[C@@H]1CNc1cc(NCc2ccc(-c3ccc(F)cn3)cc2)n2ncc(C3CC3)c2n1 [PPA-019] | 70 | 3.2 | 70 | 224 | 1.34 | 52.4 | 52.4 |
| O[C@H]1CNCC[C@@H]1CNc1cc(NCc2ccc(-c3ccccn3)cn2)n2ncc(C3CC3)c2n1 [PPA-021] | 69 | 5.7 | 69 | 393 | 9.20 | 7.5 | 7.5 |
| O[C@H]1CNCC[C@@H]1CNc1cc(NCc2cc(F)c(-c3ccccn3)cn2)n2ncc(C3CC3)c2n1 [PPA-022] | 72 | 1.8 | 72 | 130 | 48.00 | 1.5 | 1.5 |
| Cc1nccn1-c1ccc(CNc2cc(NC[C@H]3CCNC[C@@H]3O)nc3c(C4CC4)cnn23)cc1 [PPA-023] | 236 | 0.5 | 236 | 113 | <0.47 | > 500 | > 500 |
| Cn1cc(-c2ccccn2)nc1CNc1cc(NC[C@H]2CCNC[C@@H]2O)nc2c(C3CC3)cnn12 [PPA-024] | 6 | 2.8 | 6 | 17 | 0.06 | 96.4 | 96.4 |
| O[C@H]1CNCC[C@@H]1CNc1cc(NCc2cn(-c3ccccn3)cn2)n2ncc(C3CC3)c2n1 [PPA-025] | 78 | 7.5 | 78 | 587 | 13.22 | 5.9 | 5.9 |
| O[C@H]1CNCC[C@@H]1CNc1cc(NCc2ccc(-c3ccccc3)nc2)n2ncc(C3CC3)c2n1 [PPA-026] | 45 | 3.6 | 45 | 164 | 3.57 | 12.6 | 12.6 |
| COc1cccnc1-c1ccc(CNc2cc(NC[C@H]3CCNC[C@@H]3O)nc3c(C4CC4)cnn23)cc1 [PPA-027] | 163 | 1.8 | 163 | 300 | 74.09 | 2.2 | 2.2 |
| CS(=O)(=O)N1CCC(CNc2cc(NCc3ccc(-c4ccccn4)cc3)n3ncc(C4CC4)c3n2)CC1 [PPA-056] | – | – | – | – | – | > 100 | > 100 |
| CC1(CNc2cc(NCc3ccc(-c4ccccn4)cc3)n3ncc(C4CC4)c3n2)CCNCC1 [PPA-063] | – | – | – | – | – | 5.9 | 5.9 |

Reference: patent publication US20240383900A1, “SUBSTITUTED PYRAZOLO [1,5-A]PYRIMIDINE-7-AMINE COMPOUNDS AS CDK INHIBITORS AND THEIR THERAPEUTIC USE” (Carrick Therapeutics Limited, priority 2021, published 2024)
